The record followed here is patent publication US8470889B2 (TRT Pharma Inc., priority 2008, dated 2013).

Molecules are shown by their SMILES. Read-outs that look alike come from different tables or passages of the source.

For data set [1], the system named is C4-2B cells. Nature of the data set: MTT cell growth inhibition, C4-2B.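 Note: cells treated with a dilution series for 72 h, then MTT added and absorbance read at 600 nm, IC50 fitted from dose-response curves by nonlinear regression.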
Procedure: (§2) MDA PCa 2b was seeded at the same density in medium BRFF-HPC1 (Athena Enzyme Systems, Baltimore, Md., USA) supplemented with 20% FBS. After overnight incubation, the medium was changed to a fresh medium containing different concentrations of test compounds diluted from stock DMSO solution. The final concentration of DMSO is 0.5%. After 72 h of incubation with test compounds, 20 μL of 3-(4,5-dimethyl thiazol-2-yl)-2,5-diphenyltetrazolium bromide (MTT) solution (5 mg/mL in PBS) were added to each well and incubated further for 2 h. Next, the supernatant was aspirated and the MTT formazan formed by metabolically viable cells was dissolved in 100 μL of isopropanol. The plates were mixed for 30 min, and the absorbance was measured at 600 nm on a plate reader (FLUOstar OPTIMA, BMG LabTech). All samples were in triplicate. The IC50 values were determined from dose-response curves by nonlinear regression using PRISM v5.00 (GraphPad Software Inc, La Jolla, Calif., USA).
(§3) The in vitro cytotoxicity of 1-20 were evaluated by MTT assays in a panel of prostate cancer cell lines, including LNCaP, MDA PCa 2b, 22Rv1, C4-2B and PC-3.
Data set [2] concerns LNCaP cells. Nature of the data set: MTT cell growth inhibition, LNCaP.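 Note: MTT formazan absorbance at 600 nm read after 72 h of compound exposure, IC50 fitted by nonlinear regression of dose-response curves, samples run in triplicate.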
Procedure: as §2, §3
Data set [3] deals with 22Rv1 cells. Nature of the data set: MTT cell growth inhibition, 22Rv1. The settings on record: MTT.
A further data set concerns MDA-MB-231 cells. Briefly: Growth inhibition, MDA-MB-231 breast cancer cells. The format is cell-based. Conditions: for IC50: Homo sapiens, MDA-MB-231. From the text:
(§1) All samples were in triplicate.

The next data set concerns MCF-7 cells. Briefly: Growth inhibition, MCF-7 breast cancer cells. Format: cell-based. Conditions: for IC50: Homo sapiens, MCF7, read-out: Cytotoxicity, IC50 (μM) MCF-7.
Excerpt: as §1

In the next data set the test system is H-1975 cells. Briefly: Growth inhibition, H-1975 lung cancer cells. Format: cell-based. The settings on record: for IC50: Homo sapiens, NCI-H1975, read-out: Cytotoxicity, IC50 (μM) H-1975.
Excerpt: as §1

Data set [4] has as its system PC-3 cells. Briefly: MTT cell growth inhibition, PC-3.
Data set [5] concerns MDA PCa 2b cells. Nature of the data set: MTT cell growth inhibition, MDA PCa 2b.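 Note: MDA PCa 2b prostate cancer cells in BRFF-HPC1 with 20% FBS, exposed to compounds for 72 h, viable-cell MTT formazan read as absorbance at 600 nm, 0.5% DMSO vehicle.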 Conditions: MTT.
Procedure: as §2, §3
Data set [6] relates to C4-2B cells.
Procedure: as §2, §3
For data set [7], the system named is LNCaP cells.
Procedure: as §2, §3
Data set [8] has as its system PC-3 cells.
The subject of data set [9] is 22Rv1 cells.
In data set [10] the test system is MDA PCa 2b cells.
Procedure: as §2, §3
The mark [11] stands for this setting: Table 10, read-out: Cytotoxicity, IC50 (μM) MDA-M B231.
[12] abbreviates: read-out: Cellular IC50 (μM) C4-2B, Table 2, 72 h.
Setting [13] is: read-out: Cellular IC50 (μM) LNCaP, Table 2, 72 h.
Setting [14] is: read-out: Cellular IC50 (μM) 22Rv1, Table 2, 72 h.
Where [15] appears, read: read-out: Cellular IC50 (μM) PCa 2b, Table 2, 72 h.
[16] abbreviates: read-out: Cellular IC50 (μM) PC-3, Table 2, 72 h, max tested 50 μM (β-ionone 150 μM).
The mark [17] stands for this setting: Table 11, read-out: Cytotoxicity, IC50 (μM) MDA-MB231.
Where [18] appears, read: read-out: Cellular IC50 (μM) C4-2B, Table 8.
The mark [19] stands for this setting: read-out: Cellular IC50 (μM) LNCaP, Table 8.
The mark [20] stands for this setting: read-out: Cellular IC50 (μM) 22Rv1, Table 8.
Setting [21] is: read-out: Cellular IC50 (μM) PCa2b, Table 8.
Where [22] appears, read: read-out: Cellular IC50 (μM) PC3, Table 8.

As to `CCn1c2ccccc2c2cc(/C=C/C(O)=C/C(=O)/C=C/C3=C(C)CCCC3(C)C)ccc21` [Compound 9], the 50% inhibitory concentration (IC50) with C4-2B cells [1] (read-out: IC50 (μM) C4-2B, Table 1, 72 h) stood at 7.4 µM; in the data set with LNCaP cells [2] (read-out: IC50 (μM) LNCaP, Table 1, 72 h) it was 9.9 µM; in the data set on 22Rv1 cells [3] (read-out: IC50 (μM) 22Rv1, Table 1, 72 h), 4.1 µM; with MDA-MB-231 cells (setting [11]), 11.7 µM; in the data set on MCF-7 cells (Table 10), 9.3 µM; with H-1975 cells (Table 10) it was 20.9 µM. Besides, in the data set with MDA-MB-231 cells, the “effect in MDA-MB-231 breast cancer cell line” value was “effective”. For the same compound, the “effect in MCF-7 breast cancer cell line” value in the data set with MCF-7 cells is “effective”. Further, in the data set with H-1975 cells, the “effect in H-1975 lung cancer cell line” value was “effective”. In the data set on PC-3 cells [4] (Table 1, 72 h, maximum tested concentration 50 μM), the “IC50 (μM) PC-3” value is “Inactive^c”.
`CC1=C(C=CC(=O)C(=Cc2ccc(O)cc2)C(=O)C=Cc2ccc(O)cc2)C(C)(C)CCC1` [Compound 14]: the IC50 in the data set on C4-2B cells [1] (setting [12]) is 4 µM; in the data set with LNCaP cells [2] (setting [13]) it was 4.5 µM; in the data set on 22Rv1 cells [3] (setting [14]), 4.7 µM; with MDA PCa 2b cells [5] (setting [15]), 4.7 µM; in the data set with PC-3 cells [4] (setting [16]), 6.7 µM.
Turning to `CC(O)(CS(=O)(=O)c1ccc(F)cc1)C(=O)Nc1ccc(C#N)c(C(F)(F)F)c1` (stereo not drawn) [Bic, bicalutamide, reference compound], the IC50 with C4-2B cells [1] (read-out: Cytotoxicity in prostate cancer cell lines IC50 (μM), C4-2B, Part D table, 72 hours, I.A. = Inactive) was above 25 µM; in the data set on LNCaP cells [2] (read-out: Cytotoxicity in prostate cancer cell lines IC50 (μM), LNCaP, Part D table, 72 hours, I.A. = Inactive), 12.7 µM; in the data set on 22Rv1 cells [3] (read-out: Cytotoxicity in prostate cancer cell lines IC50 (μM), 22Rv1, Part D table, 72 hours), above 50 µM; in the data set on MDA PCa 2b cells [5] (read-out: Cytotoxicity in prostate cancer cell lines IC50 (μM), PCa-2b, Part D table, 72 hours), above 50 µM. Also, in the data set with PC-3 cells [4] (Part D table, 72 hours, I.A. = Inactive), the “Cytotoxicity in prostate cancer cell lines IC50 (μM), PC-3” value is listed as “I.A”.
In the case of `CC(=O)N1N=C(/C=C/C2C(C)=CCCC2(C)C)CC1c1cccc(C(F)(F)F)c1` (stereo not drawn) [Compound C2], the 50% inhibitory concentration (IC50) was found to be 14.4 µM with MDA-MB-231 cells (setting [17]); 23.1 µM with MCF-7 cells (Table 11); 12.2 µM with C4-2B cells [6] (human, 72 h); 14.8 µM in the data set with H-1975 cells (Table 11); 16.8 µM with LNCaP cells [7] (human, 72 h); 15.9 µM with PC-3 cells [8] (human, 72 h).
With `CC1=C(/C=C/C(=O)/C=C/c2ccccc2)C(C)(C)CCC1O` (stereo not drawn) [Compound B44], the 50% inhibitory concentration (IC50) is 1.8 µM with C4-2B cells [1] (setting [18]); 5.8 µM with LNCaP cells [2] (setting [19]); 8 µM in the data set on 22Rv1 cells [3] (setting [20]); 12.6 µM with MDA PCa 2b cells [5] (setting [21]); 15.5 µM in the data set with PC-3 cells [4] (setting [22]).
Regarding `CC(=O)N1N=C(/C=C/C2=C(C)C(O)CCC2(C)C)CC1c1cccc(C(F)(F)F)c1` (stereo not drawn) [Compound C4], the half-maximal inhibitory concentration (IC50) with MDA-MB-231 cells (setting [17]) is above 25 µM; in the data set on MCF-7 cells (Table 11), above 25 µM; in the data set with C4-2B cells [6] (human, 72 h), 17.8 µM; in the data set with H-1975 cells (Table 11), above 25 µM; in the data set on LNCaP cells [7] (human, 72 h), 35.4 µM; in the data set with PC-3 cells [8] (human, 72 h) it was 47 µM.
With `COc1ccc(C2CC(/C=C/C3=C(C)C(O)CCC3(C)C)=NN2C(C)=O)cc1OC` (stereo not drawn) [Compound C3], the concentration for half-maximal inhibition (IC50) in the data set with MDA-MB-231 cells (setting [17]) is above 25 µM; in the data set on MCF-7 cells (Table 11) it was above 25 µM; with C4-2B cells [6] (human, 72 h), 22.1 µM; with H-1975 cells (Table 11), above 25 µM; in the data set on LNCaP cells [7] (human, 72 h) it was 24.7 µM; in the data set on PC-3 cells [8] (human, 72 h), 25.5 µM.
With `CCn1c2ccccc2c2cc(/C=C(\C(=O)/C=C/C3=C(C)CCCC3(C)C)C(=O)/C=C/c3ccc(O)c(OC)c3)ccc21` [Compound 19], the half-inhibitory concentration (IC50) amounted to 2.3 µM in the data set with C4-2B cells [1] (setting [12]); 2.3 µM in the data set on LNCaP cells [2] (setting [13]); 2.4 µM in the data set on 22Rv1 cells [3] (setting [14]); 8.1 µM with MDA PCa 2b cells [5] (setting [15]); 7 µM in the data set on PC-3 cells [4] (setting [16]).
`COc1cc(C=CC(=O)C(=Cc2cc(OC)c(O)c(OC)c2)C(=O)C=CC2=C(C)CCCC2(C)C)cc(OC)c1O` [Compound 15]: the half-inhibitory concentration (IC50) is 8.5 µM in the data set on C4-2B cells [1] (setting [12]); 8.7 µM with LNCaP cells [2] (setting [13]); 17.6 µM in the data set on 22Rv1 cells [3] (setting [14]); 15.3 µM with MDA PCa 2b cells [5] (setting [15]); 12.5 µM with PC-3 cells [4] (setting [16]).
For the compound `COc1cc(/C=C/C(=O)CC(=O)/C=C/c2ccc(O)c(OC)c2)ccc1O` [Curcumin, reference compound], the IC50 is 6.1 µM in the data set on C4-2B cells [1] (setting [12]); 8.5 µM in the data set with LNCaP cells [2] (setting [13]); 18.3 µM in the data set with 22Rv1 cells [3] (setting [14]); 15.7 µM with MDA-MB-231 cells (setting [11]); 13.6 µM with MCF-7 cells (Table 10); above 25 µM in the data set on H-1975 cells (Table 10). Moreover, the half-maximal inhibitory concentration (IC50) in the data set on PC-3 cells [4] (setting [16]) worked out at 16.8 µM.
On to `CC(=O)N1N=C(/C=C/C2C(C)=CCCC2(C)C)CC1c1ccccc1F` (stereo not drawn) [Compound C1], for which the IC50 turned out to be 20.4 µM in the data set with MDA-MB-231 cells (setting [17]); 25.3 µM with MCF-7 cells (Table 11); 23.7 µM with H-1975 cells (Table 11); 17.1 µM in the data set on LNCaP cells [7] (human, 72 h).
In the case of `CC1=CCCC(C)(C)C1/C=C/C1=NNC(c2cccc(C(F)(F)F)c2)C1` (stereo not drawn) [Compound C5], the IC50 in the data set with MDA-MB-231 cells (setting [17]) is 15.8 µM; in the data set with MCF-7 cells (Table 11), 17.6 µM; with C4-2B cells [6] (human, 72 h), 5.7 µM; in the data set with H-1975 cells (Table 11), 19.2 µM; with LNCaP cells [7] (human, 72 h), 10.9 µM.
As to `CC(=O)N1N=C(/C=C/C2C(C)=CCCC2(C)C)CC1c1ccc(C(F)(F)F)cc1` (stereo not drawn) [Compound C7], the concentration for half-maximal inhibition (IC50) in the data set on MDA-MB-231 cells (setting [17]) was found to be 20 µM; in the data set with MCF-7 cells (Table 11), 20.8 µM; in the data set with C4-2B cells [6] (human, 72 h) it was 14.4 µM; with H-1975 cells (Table 11), 17.9 µM; with LNCaP cells [7] (human, 72 h) it was 16.6 µM.
In the case of `CCOc1ccc(C=CC(=O)C(=Cc2ccc(OCC)c(OCC)c2)C(=O)C=CC2=C(C)CCCC2(C)C)cc1OCC` [Compound 13], the concentration for half-maximal inhibition (IC50) amounted to 14.9 µM in the data set on LNCaP cells [2] (setting [13]), 6.8 µM with MDA PCa 2b cells [5] (setting [15]) and 14.1 µM in the data set with PC-3 cells [4] (setting [16]).
For `CC1=C(/C=C/C(=O)/C=C/c2cccc(C(F)(F)F)c2)C(C)(C)CCC1O` (stereo not drawn) [Compound B45], the IC50 with C4-2B cells [1] (setting [18]) stood at 1.4 µM; in the data set with LNCaP cells [2] (setting [19]) it was 0.74 µM; with 22Rv1 cells [3] (setting [20]), 1.7 µM; in the data set on MDA PCa 2b cells [5] (setting [21]), 2.6 µM; with PC-3 cells [4] (setting [22]) it was 3.5 µM.
For `CC1=C(/C=C/C(=O)/C=C/c2ccc(F)c(C(F)(F)F)c2)C(C)(C)CCC1O` (racemic) [Compound B32], the IC50 with C4-2B cells [6] was 7.3 µM; with LNCaP cells [7], 2.2 µM; in the data set on 22Rv1 cells [9] it was 3.2 µM; with PC-3 cells [8], 7.3 µM; with MDA PCa 2b cells [10], 10 µM.
As to `CC(=O)N1N=C(/C=C/C2C(C)=CCCC2(C)C)CC1c1ccccc1C(F)(F)F` (stereo not drawn) [Compound C6], the IC50 in the data set with MDA-MB-231 cells (setting [17]) stood at 15.4 µM; in the data set on MCF-7 cells (Table 11), 18.3 µM; in the data set on C4-2B cells [6] (human, 72 h), 16.6 µM; in the data set with H-1975 cells (Table 11), 18.3 µM; with LNCaP cells [7] (human, 72 h), 18.2 µM.
For `CC1=C(/C=C/C(=O)/C=C/c2ccccc2)C(C)(C)CCC1O` (racemic) [Compound B23], the half-maximal inhibitory concentration (IC50) was 1.8 µM with C4-2B cells [6]; 5.8 µM in the data set on LNCaP cells [7]; 8 µM in the data set with 22Rv1 cells [9]; 15.5 µM in the data set on PC-3 cells [8]; 12.6 µM in the data set on MDA PCa 2b cells [10].
For `COc1cc(/C=C/C(=O)/C=C/C2=C(C)C(O)CCC2(C)C)ccc1O` (stereo not drawn) [Compound B68], the IC50 in the data set on C4-2B cells [1] (setting [18]) is 20.3 µM; in the data set on LNCaP cells [2] (setting [19]), 19.6 µM; in the data set on 22Rv1 cells [3] (setting [20]) it was 22.6 µM; in the data set with MDA PCa 2b cells [5] (setting [21]), above 25 µM; in the data set on PC-3 cells [4] (setting [22]), 32.9 µM.

Usually IC50 stands for the concentration that inhibits the measured activity by half.
